Experimental data from patent US20260152751A1, “INTERFERING RNA FOR INHIBITING JAK1 GENE EXPRESSION AND USE THEREOF” (Jenkem Technology Co., Ltd. (BEIJING), priority 2024, published 2026).

Key:
[1] = test system: JAK1 gene; experiment: qPCR of JAK1 expression in HaCaT cells transfected with modified siJAK1; type: cell-based, human; conditions: siRNA 50 nM, 48 h after transfection, JAK1 by qPCR, siNC = 100.00
Protocol: One day prior to transfection, 293T cells were seeded into a 24-well cell culture plate at 1×10^5 cells/well, and the culture medium was 500 μL of DMEM containing 10% FBS and 1% penicillin-streptomycin. Three replicate wells were made for each group. The culture plate was placed in an incubator with 5% CO2 at 37° C. for 24 h to allow the cells to adhere to the wall. On the day of transfection, the culture medium was changed to 450 μL of DMEM culture medium without antibiotics (containing 10% FBS). The siRNAs were diluted with 25 μL of Opti-MEM culture medium, and the control group was siNC at the same concentration; a Lipofectamine™RNAiMAX transfection reagent (Lip) was diluted with another 25 μL of Opti-MEM culture medium, and the mixture was left to stand at room temperature for 5 min; and the two dilutions were uniformly mixed and left to stand at room temperature for 5 min. 50 μL of the mixed solution described above was added to each well to obtain a final transfection volume of 500 μL, and the working concentration of the siRNA was 50 nM. After the cells were further cultured in an incubator with 5% CO2 at 37° C. for 48 h, the total RNA of the cells was extracted.
1) The RNA was reverse-transcribed into a cDNA template using the All-in-One First-Strand Synthesis MasterMix (LABLEAD, Cat. No.: F0202) kit. The reaction system was established according to Table 2, where all components were mixed uniformly and centrifuged to collect the liquid at the bottom of a tube, and the PCR program was run according to the settings of 37° C. for 2 min, 55° C. for 15 min, and 85° C. for 5 min, thereby giving the cDNA template.
2) The gene expression level was detected using the Taq SYBR® Green qPCR Premix (LABLEAD, Cat. No.: R0202) kit, and the qPCR system was established according to Table 3. All components were mixed uniformly and centrifuged to collect the liquid at the bottom of a tube, and the PCR program was run according to the following settings: • Step1: 95° C. 30 s; • Step2: 95° C. 10 s; • Step3: 60° C. 30 s+Plate Read; • Step4: Go to Step2, 40 times; • Step5: Melt Curve 65 to 95° C., increment 0.5° C., for 5 s+Plate Read.
GAPDH was used as an endogenous reference to detect the relative expression level of JAK1 gene, and the sequences of the primers used are as follows: […]
According to the method described in Example 2, human keratinocyte HaCaT cells were transfected with the modified siJAK1 at an siRNA working concentration of 50 nM. The expression level of JAK1 was detected by qPCR 48 h after the transfection. The controls included siNC and unmodified siJAK1 at the same concentration.

[2] = test system: IFN-γ-induced STAT1 phosphorylation; experiment: Western blot of IFN-γ-induced STAT1 phosphorylation in L929 cells; type: cell-based, mouse; conditions: siRNA 50 nM, 48 h, IFN-γ 100 ng/mL 30 min, compared to siNC in Group 3, FIG. 17
Protocol: Mouse fibroblast L929 cells were seeded into a 6-well cell culture plate at 1×10^5 cells/well, and the culture medium was 2 mL of DMEM containing 10% FBS and 1% penicillin-streptomycin.
The cells were then harvested, and the total cellular proteins were extracted to detect the levels of phosphorylated STAT1 by Western blot.
1) The cells were lysed in an appropriate volume of pre-chilled RIPA lysis solution (supplemented with 1 mM PMSF, R1090, LABLEAD prior to use; containing protease and phosphatase inhibitors) for 3-5 min. The lysates were centrifuged at 14000 g at 4° C. for 5 min. The supernatant was carefully pipetted into a new 1.5 mL centrifuge tube. Protein concentrations were measured using the BCA method (PC0020, Solarbio). The samples were mixed with a loading buffer and incubated in a water bath kettle at 95° C. for 10 min.
2) The protein samples were separated by electrophoresis on 4-12% 12-well gradient gels (P41212, LABLEAD) using compatible electrophoresis buffer. […]
4) The PVDF membrane was trimmed based on the molecular weight of the protein and the marker, and blocked with 5% skim milk in TBST at room temperature for 1 h. […] After the membrane was washed again, chemiluminescent substrate (E1050, E1080, LABLEAD) was added, and signals were captured using the Bio-Red imaging system (ChemiDoc™ XRS+Imager) and analyzed using the accompanying software. […]

## siJAK1-3283-m11: 2′-OMe and 2′-F modified siJAK1-3283; sense strand SEQ ID NO: 51, antisense strand SEQ ID NO: 55 (sense AGAACAUUGUGAAGUACAAUU; antisense UUGUACUUCACAAUGUUCUUU; 2'-OMe and 2'-F modifications; modified_base 20..21 OTHER; thymine; modified_base 1..2 OTHER; 2'-O-methyl; modified_base 3 OTHER; 2'-fluoro; modified_base 4 OTHER; modified_base 5 OTHER; modified_base 6 OTHER; modified_base 7 OTHER; modified_base 8 OTHER; modified_base 9..11 OTHER; modified_base 12 OTHER; modified_base 13 OTHER; modi; modified_base 1..3 OTHER; modified_base 7)
[1]
  Relative expression level, Mean value (Mean): 18.37
[2]
  Inhibition of IFN-γ-induced STAT1 phosphorylation level by modified siJAK1 (Western blot): superior inhibitory effects
